# Assay results from paper PMC2610245 (Drug metabolism and disposition: the biological fate of …, 2008).
# Columns and labels:
# [1] = biological target: T1, P450 2C9 (Homo sapiens, UniProt P11712); assay: Metabolic stability by substrate depletion; conditions: 1 μM substrate, 0.04 μM P450 2C9, NADPH 2 mM, 37°C
# [2] = biological target: P450 2C9 Baculosomes (Homo sapiens, UniProt P11712); assay: Partition ratio by titration method; conditions: 30 min pre-incubation, (S)-flurbiprofen as probe substrate
# Chain of P450 2C9 Baculosomes (P11712 whole entry): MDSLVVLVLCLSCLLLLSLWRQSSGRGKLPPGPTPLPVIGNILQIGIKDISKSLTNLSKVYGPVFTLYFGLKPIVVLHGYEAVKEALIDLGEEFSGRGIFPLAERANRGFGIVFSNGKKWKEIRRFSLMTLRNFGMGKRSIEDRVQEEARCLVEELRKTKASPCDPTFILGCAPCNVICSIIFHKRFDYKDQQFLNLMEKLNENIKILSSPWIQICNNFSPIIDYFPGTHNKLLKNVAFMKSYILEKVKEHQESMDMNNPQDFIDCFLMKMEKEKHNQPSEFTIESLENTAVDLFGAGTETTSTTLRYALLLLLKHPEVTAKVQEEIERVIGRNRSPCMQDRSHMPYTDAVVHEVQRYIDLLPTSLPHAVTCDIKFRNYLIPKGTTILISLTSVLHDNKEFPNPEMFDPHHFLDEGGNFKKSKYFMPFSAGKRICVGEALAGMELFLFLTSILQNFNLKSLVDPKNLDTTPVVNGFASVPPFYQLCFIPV
# [3] = biological target: T1, P450 2C9; assay: P450 2C9 inactivation assay; conditions: Hill equation
# [4] = biological target: T1, P450 2C9; assay: in vitro; conditions: recombinant enzyme, pH 7.4, in vitro half-life (t1/2)
# [5] = ref Kumar et al., 2002; Mano et al., 2007; cited from earlier work
# [6] = test system: P450 2C9; conditions: in humans; ref Obach et al., 2007; cited from earlier work
# T1 sequence (P11712 whole entry): as above
structure (smiles),measurement,setting,value
"CC(C(=O)O)c1ccc(C(=O)c2cccs2)cc1 (racemic) [(±)-Suprofen, (±)-suprofen]",in vitro half-life (t1/2),[1],50 min
same,partition ratio,[2],98
same,turnover number (partition ratio + 1),[2],99
same,n (Hill coefficient),[3]; probe substrate (S)-flurbiprofen,1.4
same,n (Hill coefficient),[3]; probe substrate diclofenac,1.3
C[C@@H](C(=O)O)c1ccc(C(=O)c2cccs2)cc1 [(R)-suprofen],half-life at 1 μM,[4],35 to 38 min
C[C@H](C(=O)O)c1ccc(-c2ccccc2)c(F)c1 [(S)-flurbiprofen],cleared by direct glucuronidation of the carboxylate functional groups,[5],roughly 50%
C[C@H](C(=O)O)c1ccc(C(=O)c2cccs2)cc1 [(S)-suprofen],half-life at 1 μM,[4],35 to 38 min
CC(=O)C[C@@H](c1ccccc1)c1c(O)c2ccccc2oc1=O [(S)-warfarin],fraction metabolized through P450 2C9 (fm2C9),[6],0.91
"O=C(O)COc1ccc(C(=O)c2cccs2)c(Cl)c1Cl [Tienilic Acid, Tienilic acid]",half-life at 1 μM,[4],5 min
O=C(O)Cc1ccccc1Nc1c(Cl)cccc1Cl [diclofenac],cleared by direct glucuronidation of the carboxylate functional groups,[5],roughly 50%
